Assay: mGlu5 Ca2+ Flux Assay: HEK 293A cells stably expressing rat mGlu5 were plated in black-walled, clear-bottomed, poly-D-lysine coated 384-well plates in 20 μL of assay medium (DMEM containing 10% dialyzed FBS, 20 mM HEPES, 100 units/mL penicillin/streptomycin plus 250 ng/mL Fungizone, and 1 mM sodium pyruvate) at a density of 20K cells/well. The cells were grown overnight at 37° C. in the presence of 5% CO2. The next day, medium was removed and the cells incubated with 20 μL of 2.3 μM Fluo-4, AM prepared as a 2.3 mM stock in DMSO and mixed in a 1:1 ratio with 10% (w/v) pluronic acid F-127 and diluted in assay buffer (Hank's balanced salt solution, 20 mM HEPES, and 2.5 mM probenecid) for 45 minutes at 37° C. Dye was removed, 20 μL of assay buffer was added, and the plate was incubated for 5 minutes at room temperature.

| SMILES | IC50 [nM] | IC50 (HEK293-A) [nM] |
| --- | --- | --- |
| O=C1c2cc(CNc3ccc(OC(F)F)cc3)nn2CCN1c1ccc(F)cc1 | 334 |  |
| COc1ccc(N(C)Cc2cc3n(n2)CCN(c2ccc(OC)cc2)C3=O)cc1 |  | 2880 |
| COc1ccc(NCc2cc3n(n2)CCN(c2ccc(F)c(F)c2)C3=O)cc1 |  | 1470 |
| Cc1cccc(NCc2cc3n(n2)[C@H](C)CN(c2ccc(F)cc2)C3=O)c1 | 1210 |  |
| COc1ccc(N(C)Cc2cc3n(n2)CCN(c2c(F)cccc2F)C3=O)cc1 |  | 1020 |
| Cc1cccc(NCc2cc3n(n2)[C@@H](C)CN(c2ccc(F)cc2)C3=O)c1 |  | 1840 |
